Measurements from US20210032257A1, “(E)-1-(4-(DIMETHYLAMINO)BUT-2-ENOYL)PYRROLIDIN-3-YL 4-((3-ISOPROPYL-5-METHYLPYRAZOLO[1,5-A]PYRIMIDIN-7-YL)AMINO)PIPERIDINE-1-CARBOXYLATE FOR INHIBITING CDK7” (Eli Lilly and Company, priority 2017, published 2021).

What was measured:
Assay in all cases: Biomarker study proliferation (CellTiter-Glo)
Assay type in all cases: cell-based
NCIH82 = system: NCIH82
Method in brief: (§1)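 Luminescence from CellTiter-Glo, read 15 minutes after reagent addition, measures viable cells after a seven-day compound exposure at 37 °C. Plating is 5000 cells per well in recommended medium such as RPMI 1640 with 10% FBS.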

K562 = system: K562
Method in brief: as §1

NCIH596 = system: NCIH596
Method in brief: as §1

NCIH1436 = system: NCIH1436
Method in brief: as §1

CORL88 = system: CORL88
Method in brief: as §1

HEC1A = system: HEC1A
Method in brief: as §1

KYSE180 = system: KYSE180
Method in brief: as §1

KURAMOCHI = system: KURAMOCHI
Method in brief: as §1

HEYA8 = system: HEYA8
Method in brief: as §1

SW837 = system: SW837
Method in brief: as §1

PATU8988T = system: PATU8988T
Method in brief: as §1

NCIH226 = system: NCIH226
Method in brief: as §1

NCIH209 = system: NCIH209
Method in brief: as §1

SW626 = system: SW626
Method in brief: as §1

COLO201 = system: COLO201
Method in brief: as §1

HL60 = system: HL60
Method in brief: as §1

HCC1569 = system: HCC1569
Method in brief: as §1

KYSE70 = system: KYSE70
Method in brief: as §1

Cc1cc(NC2CCN(C(=O)O[C@H]3CCN(C(=O)/C=C/CN(C)C)C3)CC2)n2ncc(C(C)C)c2n1 [Example 1, [(3S)-1-[(E)-4-(dimethylamino)but-2-enoyl]pyrrolidin-3-yl] 4-[(3-isopropyl-5-methyl-pyrazolo[1,5-a]pyrimidin-7-yl)amino]piperidine-1-carboxylate]
IC50 (NCIH82; Homo sapiens, NCI-H82, 168 h, read-out: Anti-proliferation effect IC50): 0.699 µM
Anti-proliferation effect % Inh. (NCIH82; NCIH82, LUNG, 7 days): 22%
Anti-proliferation effect Outcome (NCIH82; NCIH82, LUNG, 7 days): Cytostatic (cytostatic (IC50<1 μM and % inhibition <70%))
IC50 (K562; Homo sapiens, K562, 168 h, read-out: Anti-proliferation effect IC50): > 10 µM
Anti-proliferation effect % Inh. (K562; K562, BLOOD, 7 days): −191%
Anti-proliferation effect Outcome (K562; K562, BLOOD, 7 days): Insensitive (insensitive (IC50≥1 μM))
IC50 (NCIH596; Homo sapiens, NCI-H596, 168 h, read-out: Anti-proliferation effect IC50): 0.922 µM
Anti-proliferation effect % Inh. (NCIH596; NCIH596, LUNG, 7 days): 46%
Anti-proliferation effect Outcome (NCIH596; NCIH596, LUNG, 7 days): Cytostatic (cytostatic (IC50<1 μM and % inhibition <70%))
IC50 (NCIH1436; Homo sapiens, NCI-H1436, 168 h, read-out: Anti-proliferation effect IC50): 0.195 µM
Anti-proliferation effect % Inh. (NCIH1436; NCIH1436, LUNG, 7 days): 56%
Anti-proliferation effect Outcome (NCIH1436; NCIH1436, LUNG, 7 days): Cytostatic (cytostatic (IC50<1 μM and % inhibition <70%))
Anti-proliferation effect % Inh. (CORL88; CORL88, LUNG, 7 days): 34%
Anti-proliferation effect Outcome (CORL88; CORL88, LUNG, 7 days): Insensitive (insensitive (IC50≥1 μM))
IC50 (CORL88; Homo sapiens, COR-L88, 168 h, read-out: Anti-proliferation effect IC50): 4.2 µM
Anti-proliferation effect % Inh. (HEC1A; HEC1A, ENDOMETRIUM, 7 days): 56%
Anti-proliferation effect Outcome (HEC1A; HEC1A, ENDOMETRIUM, 7 days): Cytostatic (cytostatic (IC50<1 μM and % inhibition <70%))
IC50 (HEC1A; Homo sapiens, HEC-1-A, 168 h, read-out: Anti-proliferation effect IC50): 0.162 µM
IC50 (KYSE180; Homo sapiens, KYSE-180, 168 h, read-out: Anti-proliferation effect IC50): 0.103 µM
Anti-proliferation effect % Inh. (KYSE180; KYSE180, OESOPHAGUS, 7 days): 68%
Anti-proliferation effect Outcome (KYSE180; KYSE180, OESOPHAGUS, 7 days): Cytostatic (cytostatic (IC50<1 μM and % inhibition <70%))
IC50 (KURAMOCHI; 168 h, read-out: Anti-proliferation effect IC50): 0.052 µM
Anti-proliferation effect % Inh. (KURAMOCHI; KURAMOCHI, OVARY, 7 days): 88%
Anti-proliferation effect Outcome (KURAMOCHI; KURAMOCHI, OVARY, 7 days): Cytotoxic (cytotoxic (IC50<1 μM and % inhibition ≥70%))
IC50 (HEYA8; HEY A8, 168 h, read-out: Anti-proliferation effect IC50): 0.112 µM
Anti-proliferation effect % Inh. (HEYA8; HEYA8, OVARY, 7 days): 89%
Anti-proliferation effect Outcome (HEYA8; HEYA8, OVARY, 7 days): Cytotoxic (cytotoxic (IC50<1 μM and % inhibition ≥70%))
IC50 (SW837; Homo sapiens, SW837, 168 h, read-out: Anti-proliferation effect IC50): 0.068 µM
Anti-proliferation effect % Inh. (SW837; SW837, INTESTINE, 7 days): 55%
Anti-proliferation effect Outcome (SW837; SW837, INTESTINE, 7 days): Cytostatic (cytostatic (IC50<1 μM and % inhibition <70%))
IC50 (PATU8988T; Homo sapiens, PaTu 8988t, 168 h, read-out: Anti-proliferation effect IC50): 0.201 µM
Anti-proliferation effect % Inh. (PATU8988T; PATU8988T, PANCREAS, 7 days): 55%
Anti-proliferation effect Outcome (PATU8988T; PATU8988T, PANCREAS, 7 days): Cytostatic (cytostatic (IC50<1 μM and % inhibition <70%))
IC50 (NCIH226; Homo sapiens, NCI-H226, 168 h, read-out: Anti-proliferation effect IC50): 1.2 µM
Anti-proliferation effect % Inh. (NCIH226; NCIH226, LUNG, 7 days): 43%
Anti-proliferation effect Outcome (NCIH226; NCIH226, LUNG, 7 days): Insensitive (insensitive (IC50≥1 μM))
IC50 (NCIH209; Homo sapiens, NCI-H209, 168 h, read-out: Anti-proliferation effect IC50): 0.04 µM
Anti-proliferation effect % Inh. (NCIH209; NCIH209, LUNG, 7 days): 83%
Anti-proliferation effect Outcome (NCIH209; NCIH209, LUNG, 7 days): Cytotoxic (cytotoxic (IC50<1 μM and % inhibition ≥70%))
IC50 (SW626; Homo sapiens, SW626, 168 h, read-out: Anti-proliferation effect IC50): 1.1 µM
Anti-proliferation effect % Inh. (SW626; SW626, 7 days): 39%
Anti-proliferation effect Outcome (SW626; SW626, 7 days): Insensitive (insensitive (IC50≥1 μM))
Anti-proliferation effect % Inh. (COLO201; COLO201, INTESTINE, 7 days): 61%
Anti-proliferation effect Outcome (COLO201; COLO201, INTESTINE, 7 days): Cytostatic (cytostatic (IC50<1 μM and % inhibition <70%))
IC50 (COLO201; Homo sapiens, COLO 201, 168 h, read-out: Anti-proliferation effect IC50): 0.123 µM
Anti-proliferation effect % Inh. (HL60; HL60, BLOOD, 7 days): 87%
Anti-proliferation effect Outcome (HL60; HL60, BLOOD, 7 days): Cytotoxic (cytotoxic (IC50<1 μM and % inhibition ≥70%))
IC50 (HL60; Homo sapiens, HL-60, 168 h, read-out: Anti-proliferation effect IC50): 0.045 µM
Anti-proliferation effect % Inh. (HCC1569; HCC1569, BREAST, 7 days): 45%
Anti-proliferation effect Outcome (HCC1569; HCC1569, BREAST, 7 days): Cytostatic (cytostatic (IC50<1 μM and % inhibition <70%))
IC50 (HCC1569; Homo sapiens, HCC1569, 168 h, read-out: Anti-proliferation effect IC50): 0.067 µM
IC50 (KYSE70; Homo sapiens, KYSE-70, 168 h, read-out: Anti-proliferation effect IC50): 0.126 µM
Anti-proliferation effect % Inh. (KYSE70; KYSE70, OESOPHAGUS, 7 days): 70%
Anti-proliferation effect Outcome (KYSE70; KYSE70, OESOPHAGUS, 7 days): Cytotoxic (cytotoxic (IC50<1 μM and % inhibition ≥70%))
